Tested on: VEEV TrD infected cells, CPE inhibition
Test: CPE inhibition in VEEV TrD infected cells, confirmatory dose response (AID 602484)

SMILES | IC50
CN(C(=O)Cc1cccs1)c1nc2c(s1)CCCC2 | 2030 nM
CCN1CCN(Cc2nc3ccc([N+](=O)[O-])cc3c(=O)n2-c2ccccc2F)CC1 | 370 nM
CN1CCN(Cc2nc3ccc([N+](=O)[O-])cc3c(=O)n2-c2ccccc2F)CC1 | 270 nM
